Tests used:
[1] = system: CA32 (DNA, aptamer) TCCGGACTTGGGTGGGTGGGTTGGGGTACGGT; assay: E-AB sensor, kinetic differential measurement (10 and 120 Hz); conditions: buffer; apparent; co-deposited 1:1 with linear probe; surface-bound
[2] = system: CA32 (DNA, aptamer) TCCGGACTTGGGTGGGTGGGTTGGGGTACGGT; assay: E-AB sensor, square-wave voltammetry; conditions: working buffer; apparent; surface-bound
[3] = system: CA40_2MM (DNA, aptamer) ACGCTCTGGACTTGGGTGGGTGGGTTGGGGTACGGTGTGT; assay: E-AB sensor, square-wave voltammetry; conditions: working buffer; apparent; surface-bound
[4] = system: CA40 (DNA, aptamer) ACGCTCCGGACTTGGGTGGGTGGGTTGGGGTACGGTGCGT; assay: fluorescence titration (intrinsic irinotecan fluorescence); conditions: working buffer; 1 µM irinotecan titrated with aptamer; excitation 370 nm
[5] = system: CA16 (DNA, G4) GGGTGGGTGGGTTGGG; assay: E-AB sensor, square-wave voltammetry; conditions: working buffer; apparent; surface-bound; KD fixed in fit
[6] = system: CA36 (DNA, aptamer) GCTCCGGACTTGGGTGGGTGGGTTGGGGTACGGTGC; assay: E-AB sensor, square-wave voltammetry; conditions: working buffer; apparent; surface-bound
[7] = system: CA40_1MM (DNA, aptamer) ACGCTCCGGACTTGGGTGGGTGGGTTGGGGTACGGTGTGT; assay: E-AB sensor, square-wave voltammetry; conditions: working buffer; apparent; surface-bound
[8] = system: CA28 (DNA, aptamer) CGGACTTGGGTGGGTGGGTTGGGGTACG; assay: E-AB sensor, square-wave voltammetry; conditions: working buffer; apparent; surface-bound; KD fixed in fit

KD [1]: 16.0 ± 1.3 µM
binding [2]: yes
binding [3]: yes
KD [4]: 0.475 ± 0.01 µM
binding [5]: yes
binding [6]: yes
binding [7]: yes
binding [8]: yes
Structure (SMILES): CCc1c2c(nc3ccc(OC(=O)N4CCC(N5CCCCC5)CC4)cc13)-c1cc3c(c(=O)n1C2)COC(=O)[C@]3(O)CC
